This note sets out measurements from patent US6531308B2, “Ketoreductase gene and protein from yeast” (Eli Lilly and Company, priority 1997, dated 2003).

For this experiment, the system named is wild-type ketoreductase from Z. rouxii (SEQ ID NO: 2). The experiment in a line: Reductase activity of Z. rouxii ketoreductase, substrate specificity (NADPH oxidation, absorbance at 340 nm). The experiment is classed as biochemical. The procedure: Reductase activity was measured using a suitable substrate and a partially purified or substantially purified ketoreductase from Z. rouxii. Activity was measured as a function of the absorbance change at 340 nm, resulting from the oxidation of NADPH. […] Reaction mixtures were first equilibrated at 26° C. for 10 min in the absence of NADPH, and then initiated by addition of NADPH. […] The kinetic parameters for 3,4-methylenedioxyphenyl acetone were determined at an NADPH concentration of 112 μM and a 3,4-methylenedioxyphenyl acetone concentration that varied from 1.7 mM -7.2 mM. The kinetic parameters for NADPH were determined by maintaining the 3,4-methylenedioxyphenyl acetone concentration at 3 mM and the NADPH concentration was varied from 20.5 μM-236.0 μM. An extinction coefficient of 6220 M^−1 cm^−1 for NADPH absorbance at 340 nm was used to calculate the specific activity of the enzyme. For assays using isatin, the change in absorbance with time was measured at 414 nm using an extinction coefficient of 849 M^−1 cm^−1 to calculate activity. One Unit of activity corresponds to 1 μmol of NADPH consumed per minute. For assays carried out at differing pH values, 10 mM Bis-Tris and 10 mM Tris were adjusted to the appropriate pH with HCl. Kinetic parameters were determined by non-linear regression using the JMP® statistics and graphics program.

`CC(=O)CCc1ccc2c(c1)OCO2`: the “% Relative Activity” value (substrate concentration 5 mM) is 18%.

For `CCOC(=O)CC(=O)CCl`, the “% Relative Activity” value (substrate concentration 5 mM) is 42%.

Turning to `CC(C)(CO)C(=O)C(=O)O`, where the note is “substrate concentration 4 mM”, the “% Relative Activity” value was 37%.

Consider `CC(=O)c1ccccc1`, for which the “% Relative Activity” value (substrate concentration 0.6 mM) came to 4%.

Turning to `CC(=O)CCc1ccccc1`, the “% Relative Activity” value (substrate concentration 0.6 mM) worked out at 0%.

`CC1(C)COC(=O)C1=O`: the “% Relative Activity” value (substrate concentration 3 mM) was determined as 194%.

Consider `O=C1Nc2ccccc2C1=O`, for which the “% Relative Activity” value (substrate concentration 0.8 mM) came out at 86%.

Regarding `CC(=O)CN1C(=O)c2ccccc2C1=O`, under “substrate concentration 0.6 mM”, the “% Relative Activity” value stood at 17%.

`CC1(C)[C@H]2CC[C@]1(C)C(=O)C2=O`: the “% Relative Activity” value (substrate concentration 5 mM) was 100%.

In the case of `CC1(C)[C@@H]2CC[C@@]1(C)C(=O)C2=O`, the “% Relative Activity” value (substrate concentration 5 mM) is 32%.

Consider `CC(=O)Cc1ccc2c(c1)OCO2` [3,4-methylenedioxyphenyl acetone], for which the “% Relative Activity” value (substrate concentration 3 mM) amounted to 100%.
